# Measured values published in patent publication US20250236599A1, “LIPID NANOPARTICLES FOR OLIGONUCLEOTIDE DELIVERY” (ZIPHIUS NV, priority 2021, published 2025).
# How the values were obtained:
# [1] = test system: expression of the luciferase saRNA; experiment: In vivo bioluminescent imaging after intramuscular injection of LNP-formulated luciferase saRNA; conditions: 1 μg LNP-formulated luciferase saRNA intramuscularly, female SWISS mice
# Method: (§1) Female SWISS mice (6 weeks old) were purchased from Janvier Laboratories (Paris, France) and kept in individually ventilated cages with access to food and water ad libitum. Mice were anesthetized with isoflurane (Zoetis, Louvain-La-Neuve, Belgium) (5% for induction and 2% for maintenance) and intramuscularly injected with a total of 1 μg in 100 μL Tris-HCL (50 μL per leg) LNP-formulated luciferase saRNA (for each group n=7). The expression of the luciferase induced bioluminescence was measured via non-invasive In vivo bioluminescent imaging (In vivo Imaging System (IVIS) Lumina III, Perkin Elmer, Waltham, Massachusetts, USA), 10 minutes after subcutaneous injection of […] of D-luciferin (GoldBio, Saint Louis, Missouri, USA, #LUCK-1G) were measured in day 0 (before injection), day 1, day 3, day 5, day 7, day 10, day 15 and day 20.
# [2] = Weight evolution of the animals following administration of LNPs; type: in vivo; conditions: female SWISS mice
# Method: as §1
# [3] = LNP particle size, polydispersity index and charge by Zeta Sizer; type: physicochemical; conditions: LNP lipid:DOPE:Cholesterol:DMG-PEG 35:20:43.5:1.5, firefly luciferase saRNA; for Polydispersity Index (PI) / Z-average (nm): N/P approx. 40/1
# Method: Cationic lipids, DOPE, Cholesterol and DMG-PEG lipid were solubilized in ethanol or DMSO at a molar ratio of 35:20:43.5:1.5 and a concentration of 100:25:20:25 μg/μL for C12-200 or 170:25:20:25 μg/μL for the comparator lipids. Lipid nanoparticles (LNP) were prepared by targeting an N/P ratio of approximately 40/1 with saRNA. Briefly, the firefly luciferase saRNA of approximately 9659 nucleotides was diluted to 0.5 mg/mL in 5 mM citrate buffer, pH 4.5. Microfluidic mixer (Ignite from Precision Nanosystems, California, USA) was used to mix the lipid solution with the saRNA aqueous solution at a ratio of about 1:3 (vol/vol) with total flow rates above 10 ml/min. The ethanol was then removed, and the external buffer replaced with 10 mM TRIS-HCL, PH 7.4, by dialysis. Finally, the lipid nanoparticles were filtered through a 0.2 μm pore sterile filter. Lipid nanoparticle particle size was 50-150 nm diameter and polydispersity index (PI) of 0.1-0.4 as determined by Zeta Sizer (Malvern Panalytical, UK). The charge of the formulation was also measured by Zeta Sizer and ranged between 20 to −20 mV.
# [4] = saRNA loading / encapsulation efficiency, Quant-IT RiboGreen assay; type: physicochemical; conditions: LNP lipid:DOPE:Cholesterol:DMG-PEG 35:20:43.5:1.5, firefly luciferase saRNA
# Method: The saRNA loading in LNP formulations was quantified using a Quant-IT RiboGreen assay (Thermo Fisher Scientific, Waltham, Massachusetts, USA) as previously described. 14 samples were diluted tenfold in 1x Tris HCL-EDTA (TE) buffer (10 mM Tris-HCL, 1 mM EDTA, pH 7.5) with or without 2% (v/v) Triton X-100 (Sigma-Aldrich, Saint Louis, Missouri, USA). Standard solutions were also prepared in 1xTE with or without 2% (v/v) Triton X-100 to account for any variation in fluorescence. The assay was performed according to the manufacturer's protocol. Samples were loaded on a black 96-well plate and analysed for fluorescence on a microplate reader (Tecan Infinite® 200 PRO) at an excitation of 485 nm and emission at 528 nm. Encapsulation efficiency was calculated between 80-100%.
# [5] = Day 1, 1 μg LNP-formulated saRNA intramuscularly
# [6] = Day 3, 1 μg LNP-formulated saRNA intramuscularly
# [7] = Day 5, 1 μg LNP-formulated saRNA intramuscularly
# [8] = Day 7, 1 μg LNP-formulated saRNA intramuscularly
# [9] = Day 10, 1 μg LNP-formulated saRNA intramuscularly
# [10] = Day 15, 1 μg LNP-formulated saRNA intramuscularly
# [11] = Day 20, 1 μg LNP-formulated saRNA intramuscularly
SMILES,Weight ([2]; Day 0) [g],"Weight [2, 5] [g]","Weight [2, 6] [g]","Weight [2, 7] [g]","Weight [2, 8] [g]","Weight [2, 9] [g]","Weight [2, 10] [g]","Weight [2, 11] [g]",Zetapotential (mV) [3] [mV],Polydispersity Index (PI) [3],Z-average (nm) [3] [nm],Encapsulation (%) [4] [%],Bioluminescence expression of LNPs ([1]; Day 1),Bioluminescence expression of LNPs ([1]; Day 3),Bioluminescence expression of LNPs ([1]; Day 5),Bioluminescence expression of LNPs ([1]; Day 7),Bioluminescence expression of LNPs ([1]; Day 10),Bioluminescence expression of LNPs ([1]; Day 15),Bioluminescence expression of LNPs ([1]; Day 20)
"CCCCCCC(CCCC)C(=O)OCCCCCCN(CCCCCCOC(=O)C(CCCC)CCCCCC)CCN(CCCCCCOC(=O)C(CCCC)CCCCCC)CCN1CCN(CCN(CCCCCCOC(=O)C(CCCC)CCCCCC)CCCCCCOC(=O)C(CCCC)CCCCCC)CC1 (centres unmarked) [Compound 9-28, ((2-(4-(2-((2-(bis(6-((2-butyloctanoyl)oxy)hexyl)amino)ethyl) (6-((2-butyloctanoyl)oxy)hexyl)amino)ethyl)piperazin-1-yl)ethyl)azanediyl)bis(hexane-6,1-diyl)bis(2-butyloctanoate)]",28.36,27.19,29.44,29.17,29.37,29.39,31.43,32.46,,,,,1.01E+08,8.67E+08,9.45E+08,5.65E+08,2.08E+06,8.15E+04,3.35E+04
"CCCCCCCCC(CCCCCC)C(=O)OCCCCCCN(CCCCCCOC(=O)C(CCCCCC)CCCCCCCC)CCN(CCCCCCOC(=O)C(CCCCCC)CCCCCCCC)CCN1CCN(CCN(CCCCCCOC(=O)C(CCCCCC)CCCCCCCC)CCCCCCOC(=O)C(CCCCCC)CCCCCCCC)CC1 (centres unmarked) [Compound 9-31, ((2-(4-(2-((2-(bis(6-((2-hexyldecanoyl)oxy)hexyl)amino)ethyl) (6-((2-hexyldecanoyl)oxy)hexyl)amino)ethyl)piperazin-1-yl)ethyl)azanediyl)bis (hexane-6,1-diyl)bis(2-hexyldecanoate)]",27.70,26.17,28.46,27.66,28.29,28.27,29.76,30.90,,,,,3.10E+07,2.74E+08,5.31E+08,2.16E+08,2.22E+06,2.46E+05,2.71E+04
"CCCCCCCCC(CCCCCC)C(=O)OCCN(CCOC(=O)C(CCCCCC)CCCCCCCC)CCN1CCN(CCN(CCOC(=O)C(CCCCCC)CCCCCCCC)CCOC(=O)C(CCCCCC)CCCCCCCC)CC1 (centres unmarked) [Compound 9-35, ((piperazine-1,4-diylbis(ethane-2,1-diyl))bis(azanetriyl))tetrakis(ethane-2,1-diyl)tetrakis(2-hexyldecanoate)]",30.01,30.06,30.43,29.87,30.30,31.23,32.13,32.23,,,,,8.83E+05,9.99E+07,5.92E+07,6.45E+07,5.62E+07,6.82E+05,2.44E+05
"CCCCCCCCCCCCCCOC(=O)CCN(CCC(=O)OCCCCCCCCCCCCCC)CCN1CCN(CCN(CCC(=O)OCCCCCCCCCCCCCC)CCC(=O)OCCCCCCCCCCCCCC)CC1 [Comparator 1 (C1), reference compound]",26.56,25.99,27.21,27.59,27.09,27.17,29.43,30.11,9.07,0.16,70.96,99.03,,,,,,,
"CCCCCCC(CCCC)C(=O)NCCCCCCN(CCCCCCNC(=O)C(CCCC)CCCCCC)CCN(CCCCCCNC(=O)C(CCCC)CCCCCC)CCN1CCN(CCN(CCCCCCNC(=O)C(CCCC)CCCCCC)CCCCCCNC(=O)C(CCCC)CCCCCC)CC1 (centres unmarked) [Compound 9-40, N,N'-(((2-(4-(2-((2-(bis(6-(2-butyloctanamido)hexyl)amino)ethyl) (6-(2-butyloctanamido)hexyl)amino)ethyl)piperazin-1-yl)ethyl)azanediyl)bis(hexane-6,1-diyl))bis(2-butyloctanamide)]",30.11,29.54,29.41,29.19,30.31,30.51,31.09,32.37,,,,,6.07E+07,6.79E+08,1.14E+09,8.88E+08,2.00E+07,1.32E+06,2.64E+05

# More lines, main results first:
Weight ([2]; Day 0) [g],"Weight [2, 5] [g]","Weight [2, 6] [g]","Weight [2, 7] [g]","Weight [2, 8] [g]","Weight [2, 9] [g]","Weight [2, 10] [g]","Weight [2, 11] [g]",Zetapotential (mV) [3] [mV],Polydispersity Index (PI) [3],Z-average (nm) [3] [nm],Encapsulation (%) [4] [%],SMILES,Bioluminescence expression of LNPs ([1]; Day 1),Bioluminescence expression of LNPs ([1]; Day 3),Bioluminescence expression of LNPs ([1]; Day 5),Bioluminescence expression of LNPs ([1]; Day 7),Bioluminescence expression of LNPs ([1]; Day 10),Bioluminescence expression of LNPs ([1]; Day 15),Bioluminescence expression of LNPs ([1]; Day 20)
29.19,29.19,29.43,29.21,30.44,31.06,31.26,31.77,,,,,"CCCCCCC(CCCC)C(=O)NCCCCCCN(CCCCCCNC(=O)C(CCCC)CCCCCC)CCN1CCN(CCN(CCCCCCNC(=O)C(CCCC)CCCCCC)CCCCCCNC(=O)C(CCCC)CCCCCC)CC1 (centres unmarked) [Compound 9-41, N, N', N″, N″'-(((piperazine-1,4-diylbis(ethane-2,1-diyl))bis(azanetriyl))tetrakis(hexane-6,1-diyl))tetrakis(2-butyloctanamide)]",,,,,,,
28.61,27.17,28.62,28.98,28.97,29.23,30.16,31.23,9.59,0.19,94.03,97.46,"CCCCCCCCCCC(O)CN(CCN1CCN(CCN(CC(O)CCCCCCCCCC)CC(O)CCCCCCCCCC)CC1)CCN(CC(O)CCCCCCCCCC)CC(O)CCCCCCCCCC (centres unmarked) [Compound C12-200, 1,1′-((2-(4-(2-((2-(bis (2-hydroxydodecyl)amino)ethyl) (2-hydroxydodecyl)amino)ethyl)piperazin-1-yl)ethyl)azanediyl) bis(dodecan-2-ol), reference compound]",,,,,,,
